In patent publication US12404241B2 (Celgene Corporation, priority 2018, dated 2025):
Structures can show the parent of a compound that is named as a salt.

Target: T1, AR (Homo sapiens, UniProt P10275)
T1 construct: endogenous in cells; host or cells: VCaP cells
T1 sequence (P10275 1-920): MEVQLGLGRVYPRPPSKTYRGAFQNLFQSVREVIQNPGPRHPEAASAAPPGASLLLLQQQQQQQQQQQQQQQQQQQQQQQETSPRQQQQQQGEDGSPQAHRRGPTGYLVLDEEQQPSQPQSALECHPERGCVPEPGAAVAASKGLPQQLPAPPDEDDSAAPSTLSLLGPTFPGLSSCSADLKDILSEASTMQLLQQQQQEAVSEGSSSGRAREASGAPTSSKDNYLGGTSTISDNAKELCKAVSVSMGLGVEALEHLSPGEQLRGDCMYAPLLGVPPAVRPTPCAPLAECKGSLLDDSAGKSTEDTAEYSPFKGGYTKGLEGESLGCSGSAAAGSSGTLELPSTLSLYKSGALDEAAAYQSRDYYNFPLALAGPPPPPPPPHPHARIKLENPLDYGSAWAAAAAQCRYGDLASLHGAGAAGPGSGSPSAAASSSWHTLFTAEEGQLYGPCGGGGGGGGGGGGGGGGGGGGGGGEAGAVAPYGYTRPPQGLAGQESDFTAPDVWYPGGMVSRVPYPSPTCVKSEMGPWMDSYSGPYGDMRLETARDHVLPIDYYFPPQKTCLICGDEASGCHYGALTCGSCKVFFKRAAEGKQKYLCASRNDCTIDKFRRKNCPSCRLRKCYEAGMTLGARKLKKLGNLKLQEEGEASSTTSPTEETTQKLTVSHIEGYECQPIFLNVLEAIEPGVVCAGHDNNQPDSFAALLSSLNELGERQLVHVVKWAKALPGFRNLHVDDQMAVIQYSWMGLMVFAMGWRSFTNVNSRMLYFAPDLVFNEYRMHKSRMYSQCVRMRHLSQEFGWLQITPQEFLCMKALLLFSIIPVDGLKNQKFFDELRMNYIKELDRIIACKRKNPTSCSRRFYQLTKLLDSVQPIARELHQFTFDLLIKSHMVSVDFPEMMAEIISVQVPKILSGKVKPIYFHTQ
Test: VCAP AR Degradation Assay
Format: cell-based
Conditions: for Y (AR degradation efficiency, % of DMSO control): class symbols *; for DC50: class symbols A-C, read-out: DC50
Method in brief: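 VCaP cells treated 24 h at 37 °C with a 10-point 1:3 series (top 5 μM final; 0.1% DMSO control). Lysate AR measured by sandwich ELISA, normalized to DMSO as percent of control; DC50, EC50 and lowest AR level (Y) from four-parameter logistic fit.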

CCc1cc(N2C(=S)N(c3ccc(C#N)c(C(F)(F)F)c3)C(=O)C2(C)C)ccc1OCCN1CCN([C@H](C)C(=O)Nc2cccc(NC3CCC(=O)NC3=O)c2)[C@@H](C)C1 (stereo partly drawn) [Example 274, (2R)-2-((S)-4-(2-(4-(3-(4-cyano-3-(trifluoromethyl)phenyl)-5,5-dimethyl-4-oxo-2-thioxoimidazolidin-1-yl)-2-ethylphenoxy)ethyl)-2-methylpiperazin-1-yl)-N-(3-(2,6-dioxopiperidin-3-ylamino)phenyl)propanamide]
Y (AR degradation efficiency, % of DMSO control): * (0<Y<=25%) | DC50: < 100 nM

CC1(C)C(=O)N(c2ccc(C#N)c(C(F)(F)F)c2)C(=S)N1c1ccc(OCCN2CCN(CC(=O)Nc3cc(Cl)cc(NC4CCC(=O)NC4=O)c3)CC2)c(F)c1 (stereo not shown) [Example 4, hydrochloride]
Y (AR degradation efficiency, % of DMSO control): * (0<Y<=25%) | DC50: < 100 nM

CC(C)c1cc(N2C(=S)N(c3ccc(C#N)c(C(F)(F)F)c3)C(=O)C2(C)C)ccc1OCCN1C[C@@H](C)N(CC(=O)Nc2cc(NC3CCC(=O)NC3=O)ccc2F)[C@@H](C)C1 (stereo partly drawn) [Example 217, 2-((2S,6R)-4-(2-(4-(3-(4-cyano-3-(trifluoromethyl)phenyl)-5,5-dimethyl-4-oxo-2-thioxoimidazolidin-1-yl)-2-isopropylphenoxy)ethyl)-2,6-dimethylpiperazin-1-yl)-N-(5-(2,6-dioxopiperidin-3-ylamino)-2-fluorophenyl)acetamide]
Y (AR degradation efficiency, % of DMSO control): * (0<Y<=25%) | DC50: 500 to 1000 nM

CCc1cc(N2C(=S)N(c3cnc(C#N)c(C(F)(F)F)c3)C(=O)C23CCC3)ccc1OCCN1CCN(CC(=O)Nc2cccc(NC3CCC(=O)NC3=O)c2)C(C)(C)C1 (stereo not shown) [Example 134, 2-(4-(2-(4-(7-(6-cyano-5-(trifluoromethyl)pyridin-3-yl)-8-oxo-6-thioxo-5,7-diazaspiro[3.4]octan-5-yl)-2-ethylphenoxy)ethyl)-2,2-dimethylpiperazin-1-yl)-N-(3-(2,6-dioxopiperidin-3-ylamino)phenyl)acetamide]
Y (AR degradation efficiency, % of DMSO control): * (0<Y<=25%) | DC50: < 100 nM

CCc1cc(N2C(=S)N(c3ccc(C#N)c(C(F)(F)F)c3)C(=O)C2(C)C)ccc1OCCN1CCN(CC(=O)Nc2cc(F)cc(NC3CCC(=O)NC3=O)c2)[C@H](C)C1 (stereo partly drawn) [Example 90, 2-((R)-4-(2-(4-(3-(4-cyano-3-(trifluoromethyl)phenyl)-5,5-dimethyl-4-oxo-2-thioxoimidazolidin-1-yl)-2-ethylphenoxy)ethyl)-2-methylpiperazin-1-yl)-N-(3-(2,6-dioxopiperidin-3-ylamino)-5-fluorophenyl)acetamide]
Y (AR degradation efficiency, % of DMSO control): * (0<Y<=25%) | DC50: < 100 nM

CC(C)c1cc(N2C(=S)N(c3ccc(C#N)c(C(F)(F)F)c3)C(=O)C2(C)C)cnc1OCCN1C[C@@H](C)N(CC(=O)Nc2cccc(NC3CCC(=O)NC3=O)c2)[C@@H](C)C1 (stereo partly drawn) [Example 224, 2-((2R,6S)-4-(2-(5-(3-(4-cyano-3-(trifluoromethyl)phenyl)-5,5-dimethyl-4-oxo-2-thioxoimidazolidin-1-yl)-3-isopropylpyridin-2-yloxy)ethyl)-2,6-dimethylpiperazin-1-yl)-N-(3-(2,6-dioxopiperidin-3-ylamino)phenyl)acetamide]
Y (AR degradation efficiency, % of DMSO control): ** (25%<Y<=35%) | DC50: 100 to 500 nM

CC(C)c1cc(N2C(=S)N(c3ccc(C#N)c(C(F)(F)F)c3)C(=O)C2(C)C)cnc1OCCN1C[C@@H](C)N(CC(=O)Nc2cccc(NC3CCC(=O)NC3=O)c2)C[C@H]1C (stereo partly drawn) [Example 230, 2-((2R,5R)-4-(2-(5-(3-(4-cyano-3-(trifluoromethyl)phenyl)-5,5-dimethyl-4-oxo-2-thioxoimidazolidin-1-yl)-3-isopropylpyridin-2-yloxy)ethyl)-2,5-dimethylpiperazin-1-yl)-N-(3-(2,6-dioxopiperidin-3-ylamino)phenyl)acetamide]
Y (AR degradation efficiency, % of DMSO control): *** (35%<Y<50%) | DC50: 500 to 1000 nM

CCc1cc(N2C(=S)N(c3ccc(C#N)c(C(F)(F)F)c3)C(=O)C2(C)C)ccc1OCCN1CCN(CC(=O)Nc2cccc(N[C@H]3CCC(=O)NC3=O)c2)CC1 [Example 27, hydrochloride]
Y (AR degradation efficiency, % of DMSO control): * (0<Y<=25%) | DC50: < 100 nM

CC(C)Cc1cc(N2C(=S)N(c3ccc(C#N)c(C(F)(F)F)c3)C(=O)C2(C)C)ccc1OCCN1CCN(CC(=O)Nc2cccc(NC3CCC(=O)NC3=O)c2)CC1 (stereo not shown) [Example 18]
Y (AR degradation efficiency, % of DMSO control): * (0<Y<=25%) | DC50: < 100 nM

CCc1cc(N2C(=S)N(c3ccc(C#N)c(C(F)(F)F)c3)C(=O)C2(C)C)cnc1OCCN1CCN(CC(=O)Nc2cc(Cl)cc(NC3CCC(=O)NC3=O)c2)CC1 (stereo not shown) [Example 69, N-(3-chloro-5-(2,6-dioxopiperidin-3-ylamino)phenyl)-2-(4-(2-(5-(3-(4-cyano-3-(trifluoromethyl)phenyl)-5,5-dimethyl-4-oxo-2-thioxoimidazolidin-1-yl)-3-ethylpyridin-2-yloxy)ethyl)piperazin-1-yl)acetamide]
Y (AR degradation efficiency, % of DMSO control): * (0<Y<=25%) | DC50: < 100 nM

CCc1cc(N2C(=S)N(c3ccc(C#N)c(C(F)(F)F)c3)C(=O)C2(C)C)ccc1OCCN1C[C@@H](C)N(CC(=O)Nc2cc(Cl)cc(NC3CCC(=O)NC3=O)c2)C[C@@H]1C (stereo partly drawn) [Example 123, N-(3-chloro-5-(2,6-dioxopiperidin-3-ylamino)phenyl)-2-((2R,5S)-4-(2-(4-(3-(4-cyano-3-(trifluoromethyl)phenyl)-5,5-dimethyl-4-oxo-2-thioxoimidazolidin-1-yl)-2-ethylphenoxy)ethyl)-2,5-dimethylpiperazin-1-yl)acetamide]
Y (AR degradation efficiency, % of DMSO control): * (0<Y<=25%) | DC50: < 100 nM

CCc1cc(N2C(=S)N(c3cnc(C#N)c(C(F)(F)F)c3)C(=O)C2(C)C)ccc1OCCN1CCN(CC(=O)Nc2cccc(N[C@H]3CCC(=O)NC3=O)c2)[C@H](C)C1 [Example 137, 2-((R)-4-(2-(4-(3-(6-cyano-5-(trifluoromethyl)pyridin-3-yl)-5,5-dimethyl-4-oxo-2-thioxoimidazolidin-1-yl)-2-ethylphenoxy)ethyl)-2-methylpiperazin-1-yl)-N-(3-((S)-2,6-dioxopiperidin-3-ylamino)phenyl)acetamide]
Y (AR degradation efficiency, % of DMSO control): * (0<Y<=25%) | DC50: < 100 nM

CC(C)c1cc(N2C(=S)N(c3ccc(C#N)c(C(F)(F)F)c3)C(=O)C2(C)C)ccc1OCCN1C[C@@H](C)N(CC(=O)Nc2cc(Cl)cc(NC3CCC(=O)NC3=O)c2)[C@@H](C)C1 (stereo partly drawn) [Example 208, N-(3-chloro-5-(2,6-dioxopiperidin-3-ylamino)phenyl)-2-((2S,6R)-4-(2-(4-(3-(4-cyano-3-(trifluoromethyl)phenyl)-5,5-dimethyl-4-oxo-2-thioxoimidazolidin-1-yl)-2-isopropylphenoxy)ethyl)-2,6-dimethylpiperazin-1-yl)acetamide]
Y (AR degradation efficiency, % of DMSO control): * (0<Y<=25%) | DC50: 100 to 500 nM

C[C@@H]1CN(CCOc2ccc(N3C(=S)N(c4ccc(C#N)c(C(F)(F)F)c4)C(=O)C3(C)C)cc2C2CCC2)C[C@H](C)N1CC(=O)Nc1cccc(NC2CCC(=O)NC2=O)c1 (stereo partly drawn) [Example 259, 2-((2R,6S)-4-(2-(4-(3-(4-cyano-3-(trifluoromethyl)phenyl)-5,5-dimethyl-4-oxo-2-thioxoimidazolidin-1-yl)-2-cyclobutylphenoxy)ethyl)-2,6-dimethylpiperazin-1-yl)-N-(3-(2,6-dioxopiperidin-3-ylamino)phenyl)acetamide]
Y (AR degradation efficiency, % of DMSO control): * (0<Y<=25%) | DC50: < 100 nM
